Experimental data taken from ChEMBL document CHEMBL1201862, “PubChem BioAssay data set” (2004).
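In this assay, cells in 96-well plates receive the compound at five concentrations for 48 hours. Endpoints are linearly interpolated between the surrounding concentrations. GI50 is the concentration that inhibits growth by half.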 The source made the active and inactive calls. Cut-off read from the data, not from the text of the source: active = GI50 up to about 1.1 µM and inactive = higher.

How the values were obtained:
Assay in all cases: NCI tumour cell line growth inhibition, 48 h
[1] = tested on: HT-29
[2] = tested on: SR
[3] = tested on: SW-620
[4] = tested on: HCT-15
[5] = tested on: SK-MEL-28
[6] = tested on: MDA-MB-435
[7] = tested on: NCI-H23
[8] = tested on: RPMI-8226
[9] = tested on: SF-539
[10] = tested on: SN12C
[11] = tested on: UACC-257
[12] = tested on: 786-0
[13] = tested on: HOP-92
[14] = tested on: SK-MEL-5
[15] = tested on: NCI/ADR-RES
[16] = tested on: SF-295
[17] = tested on: SK-MEL-2
[18] = tested on: DU-145
[19] = tested on: ACHN
[20] = tested on: HOP-62

SMILES | GI50 [1] | GI50 [2] | GI50 [3] | GI50 [4] | GI50 [5] | GI50 [6] | GI50 [7] | GI50 [8] | GI50 [9] | GI50 [10] | GI50 [11] | GI50 [12] | GI50 [13] | GI50 [14] | GI50 [15] | GI50 [16] | GI50 [17] | GI50 [18] | GI50 [19] | GI50 [20]
CSc1ccc(Nc2cc(=O)[nH]c(=O)[nH]2)cc1 | > 100 µM (inactive) | > 100 µM (inactive) | > 100 µM (inactive) | > 100 µM | > 100 µM (inactive) | > 100 µM (inactive) | > 100 µM (inactive) | > 100 µM (inactive) | > 100 µM (inactive) | > 100 µM (inactive) | > 100 µM (inactive) | > 100 µM (inactive) | > 100 µM (inactive) | > 100 µM (inactive) | > 100 µM (inactive) | > 100 µM (inactive) | > 100 µM (inactive) | > 100 µM (inactive) | > 100 µM (inactive) | –
CC(=O)OC1CC[C@@]2(C)C(=CC[C@@H]3[C@@H]2CC[C@]2(C)Nc4nn(S(C)(=O)=O)cc4C[C@@H]32)C1 (some centres not stated) | 11.6 µM (inactive) | 36.4 µM (inactive) | – | 24.2 µM | 28.4 µM (inactive) | 20 µM (inactive) | 35.1 µM (inactive) | 30 µM (inactive) | – | 59.7 µM (inactive) | – | – | 49.5 µM (inactive) | 15.2 µM (inactive) | 29.9 µM (inactive) | 34 µM (inactive) | 22.3 µM (inactive) | 35.9 µM (inactive) | – | 43.9 µM (inactive)
COc1ccc(C2C3CCc4ccccc4C3=NN2S(=O)(=O)c2ccc(Cl)cc2)cc1 (configuration not stated) | 18.1 µM (inactive) | 3.01 µM (inactive) | 23.2 µM (inactive) | 1.8 µM | – | 2.07 µM (inactive) | 33.3 µM (inactive) | 14 µM (inactive) | 18.3 µM (inactive) | 37 µM (inactive) | 17.3 µM (inactive) | 6.93 µM (inactive) | 20 µM (inactive) | 16 µM (inactive) | 5 µM (inactive) | 18.2 µM (inactive) | 28.4 µM (inactive) | 30 µM (inactive) | 15.4 µM (inactive) | 31.8 µM (inactive)
Cn1c(-c2ccccc2)cc(-c2cccs2)c1-c1ccsc1 | > 100 µM (inactive) | > 100 µM (inactive) | > 100 µM (inactive) | > 100 µM | – | > 100 µM (inactive) | > 100 µM (inactive) | 64.1 µM (inactive) | > 100 µM (inactive) | > 100 µM (inactive) | > 100 µM (inactive) | > 100 µM (inactive) | > 100 µM (inactive) | > 100 µM (inactive) | > 100 µM (inactive) | > 100 µM (inactive) | > 100 µM (inactive) | > 100 µM (inactive) | > 100 µM (inactive) | > 100 µM (inactive)
C[C@@H]1OC(=O)C[C@H]2CC(=O)N(CCC3CN(S(=O)(=O)C(F)(F)F)c4ccccc43)C[C@@H]21 (some centres not stated) | > 100 µM (inactive) | > 100 µM (inactive) | > 100 µM (inactive) | > 100 µM | > 100 µM (inactive) | > 100 µM (inactive) | > 100 µM (inactive) | > 100 µM (inactive) | – | – | > 100 µM (inactive) | > 100 µM (inactive) | > 100 µM (inactive) | > 100 µM (inactive) | > 100 µM (inactive) | > 100 µM (inactive) | > 100 µM (inactive) | > 100 µM (inactive) | > 100 µM (inactive) | > 100 µM (inactive)
CCOC(=O)CN1C(=O)c2c(NC(=O)C(=O)O)cccc2S1(=O)=O | > 100 µM (inactive) | > 100 µM (inactive) | > 100 µM (inactive) | > 100 µM | > 100 µM (inactive) | > 100 µM (inactive) | > 100 µM (inactive) | > 100 µM (inactive) | – | > 100 µM (inactive) | > 100 µM (inactive) | > 100 µM (inactive) | > 100 µM (inactive) | > 100 µM (inactive) | > 100 µM (inactive) | > 100 µM (inactive) | > 100 µM (inactive) | > 100 µM (inactive) | > 100 µM (inactive) | > 100 µM (inactive)
O=C(/N=N/c1cc(Cl)ccc1Cl)NNc1cc(Cl)ccc1Cl | 17.5 µM (inactive) | 21.2 µM (inactive) | – | 16.5 µM | 23.5 µM (inactive) | 13.7 µM (inactive) | 18.1 µM (inactive) | 11.9 µM (inactive) | – | 21.4 µM (inactive) | – | – | 15.2 µM (inactive) | 12.7 µM (inactive) | 22 µM (inactive) | 22.8 µM (inactive) | 20 µM (inactive) | 30.3 µM (inactive) | – | 17.3 µM (inactive)
Cc1ccc(C(=O)N/N=C(\N=N\c2cccc(C)c2)c2ccc(N(CCC#N)CCC#N)cc2C)cc1 | 34.4 µM (inactive) | 55.1 µM (inactive) | 50.5 µM (inactive) | > 100 µM | 13.1 µM (inactive) | 26.4 µM (inactive) | > 100 µM (inactive) | 49.9 µM (inactive) | 64.7 µM (inactive) | – | 58.9 µM (inactive) | – | 34 µM (inactive) | 32.2 µM (inactive) | > 100 µM (inactive) | > 100 µM (inactive) | 49.3 µM (inactive) | 73.1 µM (inactive) | > 100 µM (inactive) | > 100 µM (inactive)
